Data published in ChEMBL document CHEMBL1140390, “ERbeta ligands. Part 4: Synthesis and structure-activity relationships of a series of 2-phenylquinoline derivatives” (Bioorg Med Chem Lett, 2005).
pIC50: −log10 of the molar value.

How the values were obtained:
Estrogen receptor beta = Estrogen receptor beta (Homo sapiens, UniProt Q92731)
Description: Binding affinity for human Estrogen receptor beta

Estrogen receptor = biological target: T1, Estrogen receptor (Homo sapiens, UniProt P03372)
T1 sequence (P03372 whole entry): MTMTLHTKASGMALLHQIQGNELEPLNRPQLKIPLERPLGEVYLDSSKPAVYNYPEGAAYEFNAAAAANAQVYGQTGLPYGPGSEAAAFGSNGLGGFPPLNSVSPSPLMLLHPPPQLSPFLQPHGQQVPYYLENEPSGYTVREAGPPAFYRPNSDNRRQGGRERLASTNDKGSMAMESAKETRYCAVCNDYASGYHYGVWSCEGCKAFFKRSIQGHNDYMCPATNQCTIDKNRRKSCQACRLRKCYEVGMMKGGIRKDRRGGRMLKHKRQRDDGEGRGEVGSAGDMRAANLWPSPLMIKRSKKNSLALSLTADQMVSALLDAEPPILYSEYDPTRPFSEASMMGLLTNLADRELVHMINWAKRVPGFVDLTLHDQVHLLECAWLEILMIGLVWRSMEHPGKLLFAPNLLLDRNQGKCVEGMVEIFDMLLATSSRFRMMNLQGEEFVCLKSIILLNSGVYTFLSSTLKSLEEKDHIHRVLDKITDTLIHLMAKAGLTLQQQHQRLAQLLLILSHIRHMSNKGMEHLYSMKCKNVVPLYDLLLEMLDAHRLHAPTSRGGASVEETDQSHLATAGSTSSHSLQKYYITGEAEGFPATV
Description: Binding affinity for human Estrogen receptor alpha

Chain of Estrogen receptor beta (Q92731 whole entry): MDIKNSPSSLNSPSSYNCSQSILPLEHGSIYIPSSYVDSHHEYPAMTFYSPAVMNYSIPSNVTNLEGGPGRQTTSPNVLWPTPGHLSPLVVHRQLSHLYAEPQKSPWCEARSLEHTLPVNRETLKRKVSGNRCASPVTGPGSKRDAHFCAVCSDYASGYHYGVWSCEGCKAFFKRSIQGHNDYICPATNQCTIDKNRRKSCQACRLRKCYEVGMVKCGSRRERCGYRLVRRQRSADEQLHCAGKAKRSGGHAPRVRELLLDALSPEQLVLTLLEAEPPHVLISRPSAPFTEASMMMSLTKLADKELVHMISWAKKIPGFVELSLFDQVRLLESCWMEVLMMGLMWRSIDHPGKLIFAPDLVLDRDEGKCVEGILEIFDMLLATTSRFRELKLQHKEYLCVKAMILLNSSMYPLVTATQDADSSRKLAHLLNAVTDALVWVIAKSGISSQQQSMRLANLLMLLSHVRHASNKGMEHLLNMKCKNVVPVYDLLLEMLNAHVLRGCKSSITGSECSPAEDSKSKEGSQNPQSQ

Row | pIC50 (Estrogen receptor beta) | pIC50 (Estrogen receptor) | Structure (SMILES)
1 | 7.12 |  | C#Cc1cc(-c2ccc(O)cc2)nc2ccc(O)cc12
2 | 7.10 | 5.76 | CCc1cc(-c2ccc(O)c(F)c2)nc2ccc(O)cc12
3 | 6.68 | 5.74 | Oc1ccc2nc(-c3ccc(O)c(F)c3)cc(-c3ccccc3)c2c1
4 | 7.57 | 5.88 | C#Cc1cc(-c2ccc(O)c(F)c2)nc2ccc(O)cc12
5 | 7.36 | 6.41 | C=Cc1cc(-c2ccc(O)c(F)c2)nc2ccc(O)cc12
6 | 7.28 | 6.20 | CCc1cc(-c2ccc(O)cc2)nc2ccc(O)cc12
7 | 6.77 | 5.75 | Oc1ccc(-c2ccc3cc(O)ccc3n2)cc1
8 | 7.52 | 6.20 | Oc1ccc(-c2ccc3c(Cl)c(O)ccc3n2)cc1
9 | 6.66 | 5.50 | CC(=O)c1cc(-c2ccc(O)cc2)nc2ccc(O)cc12
10 | 7.44 | 6.11 | Oc1ccc2nc(-c3cc(F)c(O)c(F)c3)cc(Br)c2c1
11 | 7.06 | 5.94 | Oc1ccc(-c2ccc3c(Br)c(O)ccc3n2)cc1
12 | < 5.30 | < 5.30 | CC(O)c1cc(-c2ccc(O)c(F)c2)nc2ccc(O)cc12 (stereo not drawn)
